Entries after “also recorded” stand apart in the source; their conditions may differ.
What was measured:
oxidized PTP1B = target: T1, oxidized PTP1B (Homo sapiens, UniProt P18031); assay: Adduct formation with oxidized PTP1B, mass spectroscopy analysis; format: binding; conditions: adduct seen by mass spectroscopy analysis;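 further: detection of covalent adducts formed between each compound and oxidized PTP1B, assessed by mass spectroscopy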
T1 sequence (P18031 1-435): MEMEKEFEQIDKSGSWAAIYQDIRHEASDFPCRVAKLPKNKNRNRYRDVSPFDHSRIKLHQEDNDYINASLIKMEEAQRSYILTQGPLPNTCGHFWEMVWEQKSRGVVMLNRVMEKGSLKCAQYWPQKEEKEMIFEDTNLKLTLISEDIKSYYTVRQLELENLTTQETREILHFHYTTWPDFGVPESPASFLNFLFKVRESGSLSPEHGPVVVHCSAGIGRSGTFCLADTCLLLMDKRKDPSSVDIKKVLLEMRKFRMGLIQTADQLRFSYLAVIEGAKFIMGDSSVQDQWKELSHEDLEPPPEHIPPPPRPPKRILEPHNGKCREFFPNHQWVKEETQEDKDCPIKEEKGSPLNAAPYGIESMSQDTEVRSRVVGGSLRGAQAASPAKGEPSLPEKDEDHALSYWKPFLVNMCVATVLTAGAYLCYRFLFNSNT
Excerpt: In further embodiments of the method, a fragment of the target protein may be used instead of the entire target protein. Certain embodiments may be directed to the binding between the compound and the target protein in the samples which may form a covalent adduct between the compound and the target protein, and the quantity of covalent adducts may be measured and compared in the samples. Any suitable assay for measuring the quantity of binding, or quantity of covalent adducts, in the two samples may be used with this method. For example, binding between the compound and the target protein may be detected using mass spectroscopy, fluorescence assays, and/or chromatography techniques. The chromatography techniques may include, but are not limited to, high-performance liquid chromatography. Further, binding between the compound and target protein may be detected using a combination of assays, for example, a combination of liquid chromatography and mass spectroscopy. The method may also be carried out in live and intact cells to determine a compound's reactivity with oxidized forms of the target protein in live cells. In certain embodiments, the potency of the compound is determined based on the degree of reduction of the quantity of adducts formed in the first sample compared with the quantity of adducts formed in the control sample, in a proportion to the quantity of compound used. In further embodiments, the potency of the compound is determined by calculating a ratio of the number of adducts formed in the first sample compared to the number of adducts formed in the control sample. A ratio of one compound can be compared directly to a ratio for another compound.
The degree of potency of the compound may be based on the degree of reduction of the quantity of adducts formed in a first sample compared with the quantity of adducts formed in the control sample in proportion to the quantity of compound used.

GPX3 = assay: In vitro probe labeling of oxidized recombinant protein, click chemistry and Western blot; format: binding; conditions: H2O2 1.5 eq, probe 1 hour
Experimental: (§1) Cell labeling western blot assays were performed using WT PJ3H-PTP1B purified from E. coli that was cloned into a mammalian expression plasmid. Recombinant PTP1B was expressed and purified from BL21AI cells. Recombinant proteins were labeled with respective equivalences of hydrogen peroxide (PTP1B, 10 eq; Gpx3 & GAPDH, 1.5 eq) in the presence of the indicated concentrations of sulfenic acid probes for 1 hour at room temperature with constant rocking Excess probe was removed by size-exclusion chromatography. Probe modified proteins were functionalized with a biotin reporter tag through the bioorthogonal Huisgen [3+2] Cycloaddition (“click chemistry”) then analyzed by Western blot.

GAPDH = GAPDH (Homo sapiens, UniProt P04406); assay: as above; format: binding; conditions: H2O2 1.5 eq, probe 1 hour
Sequence of GAPDH (P04406 whole entry, species assumed): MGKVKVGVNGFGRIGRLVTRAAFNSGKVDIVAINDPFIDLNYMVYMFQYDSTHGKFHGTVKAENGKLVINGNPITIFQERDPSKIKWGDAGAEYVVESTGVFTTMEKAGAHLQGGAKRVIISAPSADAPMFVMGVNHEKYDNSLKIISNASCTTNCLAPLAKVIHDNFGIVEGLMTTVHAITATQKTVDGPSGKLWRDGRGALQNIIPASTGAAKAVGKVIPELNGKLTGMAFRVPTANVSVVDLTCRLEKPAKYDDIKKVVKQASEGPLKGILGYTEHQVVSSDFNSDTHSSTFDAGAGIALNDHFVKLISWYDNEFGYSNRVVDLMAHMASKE
Experimental: as §1

PTP1B = target: T2, PTP1B (Homo sapiens, UniProt P18031); assay: PTP assay, 4-MUP fluorescence; format: biochemical; conditions: FIG. 20 fluorescence assay, percent activity
T2 sequence (P18031 1-435): T1 sequence (P18031 1-435)
Experimental: as §1
The PTP assay included PTP that was prepared up to 100 nM in 32 mM HEPES, pH 7.2, 5 mM NaCl, 2.5 mM EDTA, 0.83% glycerol, 0.02% Triton X-100, and 0.002% Brij-35. The protein was dispensed to a black ckear-bottomed 96-well microplate followed by the addition of redox-based probes or DMSO and allowed to incubate for 15 minutes at 25° C. The assay was initiated with the addition of 4-methylumbelliferyl phosphate (4-MUP), and the formation of fluorescent product was measured with an excitation wavelength of 358 nm and emission wavelength of 449 nm.

in vitro = conditions: human, microsomes
[1] = Microsome stability, mouse liver microsomes; format: in vitro ADME; conditions: read-out: Microsome Stability Mouse t1/2
[2] = Plasma stability in mice (20 mg/kg IP); format: in vivo; conditions: mouse, intraperitoneal
Experimental: Plasma stability of drug candidates may be essential for maintaining acceptable drug concentration and half-life in order to achieve desirable pharmacological effects. Compounds 1a to 5a were evaluated for plasma stability in mice with PD168393 as the reference. […] At a time point of 24 hours, Compounds 1a-5a and PD168393 were almost completely degraded.

A431 and HeLa cells = conditions: compared to DAz-2, identical conditions; cited from earlier work
[3] = Microsome stability, human liver microsomes
[4] = Dipeptide sulfenic acid model, reaction rate

| REACTIVITY WITH OXIDIZED PTP1B (oxidized PTP1B) | SMILES | also measured |
| --- | --- | --- |
| No adduct | O=C1CC(=O)C(c2ccccc2)C1 (stereo not drawn) | – |
| Adduct | O=C1CC(=O)N(c2ccccc2)C1 | – |
| Adduct | COc1ccc(-c2ccccc2)cc1N1CC(=O)CC1=O | – |
| Adduct | O=C1CC(=O)N(c2cc(-c3ccccc3)ccc2O)C1 | – |
| No adduct | O=C1CC(=O)C(Cc2ccccc2)C1 (stereo not drawn) | – |
| Adduct | O=C1CC(=O)N(Cc2ccccc2)C1 | – |
| Adduct | COc1ccc(-c2ccccc2)cc1CN1CC(=O)CC1=O | – |
| Adduct | O=C1CC(=O)N(Cc2cc(-c3ccccc3)ccc2O)C1 | – |
| No adduct | O=C1CC(c2ccccc2)S(=O)(=O)C1 (stereo not drawn) | – |
| No adduct | O=C1CN(c2ccccc2)S(=O)(=O)C1 | – |
| No adduct | O=C1CC(Cc2ccccc2)S(=O)(=O)C1 (stereo not drawn) | – |
| No adduct | O=C1CN(Cc2ccccc2)S(=O)(=O)C1 | – |
| No adduct | O=C1CC(=O)/C(=C\c2ccccc2)C1 | – |
| No adduct | O=C1C/C(=C/c2ccccc2)S(=O)(=O)C1 | – |
| No adduct | COc1ccc(-c2ccccc2)cc1N1CC(=O)CS1(=O)=O | – |
| Adduct | O=C1CC(=O)c2ccccc21 | – |
| Adduct | O=C1CS(=O)(=O)c2ccccc21 | – |

| REACTIVITY WITH OXIDIZED PTP1B (oxidized PTP1B) | SMILES | also measured |
| --- | --- | --- |
| Adduct | O=C1CS(=O)(=O)Cc2ccccc21 | – |
| Adduct | CN1c2ccccc2C(=O)CS1(=O)=O | – |
| No Adduct | O=C1CS(=O)(=O)N(Cc2ccccc2)c2ccccc21 | – |
| No Adduct | O=C1CS(=O)(=O)c2ccccc2N1 | – |
| No Adduct | CN1C(=O)CS(=O)(=O)c2ccccc21 | – |
| No Adduct | O=C1CC(=O)c2ccccc2N1 | – |
| No Adduct | CN1C(=O)CC(=O)c2ccccc21 | – |
| No Adduct | O=C1CS(=O)(=O)Nc2ccccc21 | – |
| Adduct | O=C1CCN(c2ccccc2)C(=O)C1 | – |
| Adduct | O=C1CCN(Cc2ccccc2)C(=O)C1 | – |
| – | C#CCCCNC(=O)C1CC(=O)CC(=O)C1 [Compound 1] | preferential detection of control protein GPX3 (GPX3): no preferential detection; preferential detection of control protein GAPDH (GAPDH): no preferential detection |
| – | C#CCCCNC(=O)c1ccc(-c2ccc(NC(=O)C3CC(=O)CC(=O)C3)cc2)cc1 [Compound 3] | IC50 (PTP1B): ~250 µM |
| – | CC(=O)CC(=O)Nc1ccc2ncnc(Nc3cccc(Br)c3)c2c1 [Compound 3a] | half-life (in vitro): 17 min; microsomal CLint (in vitro): 39.7 µL/min/mg; half-life [1]: 4 min; concentration at 1 h [2]: 29100 nM; concentration at 4 h [2]: 1100 nM; concentration at 8 h [2]: 100 nM; concentration at 24 h [2]: < 25 nM |
| – | C#CCCCC1CCC(=O)CC1=O (stereo not drawn) [DYn-2] | total signal and signal ratio of cell labeling (A431 and HeLa cells): greater total signal and signal ratio compared to DAz-2 |
| – | C=CC(=O)Nc1ccc2ncnc(Nc3cccc(Br)c3)c2c1 [PD168393, reference compound] | half-life [1]: 3 min; concentration at 1 h [2]: 2000 nM; concentration at 4 h [2]: 40 nM; concentration at 8 h [2]: 50 nM; concentration at 24 h [2]: < 5 nM; half-life [3]: 10 min; microsomal CLint [3]: 72.4 µL/min/mg |
| No adduct | CC1(C)CC(=O)CC(=O)C1 [drawing 1] | – |

| SMILES | REACTIVITY WITH OXIDIZED PTP1B (oxidized PTP1B) | also measured |
| --- | --- | --- |
| CC1(C)CC(=O)CC(=O)C1 [dimedone, reference compound] | not reactive enough to trap the sulfenic acid in PTP1B as an observable adduct; also recorded: no adduct | rate constant for reaction in the dipeptide model (pseudo first-order) [4]: 1 min⁻¹ |
